Columns and labels:
Assay type in all cases: biochemical
[1] = target: PI3Kα (Homo sapiens (Human), UniProt P42336); assay: PI3K Enzyme Assay A2 ([γ-33P]ATP filter plate), PI3Kα; conditions: Assay A2, 1000 μM ATP
Procedure: Materials: Lipid kinase substrate, phosphoinositol-4,5-bisphosphate (PIP2), was purchased from Echelon Biosciences (Salt Lake City, Utah). PI3K isoforms α, β, δ and γ were purchased from Millipore (Bedford, Mass.). ATP, MgCh, DTT, EDTA, MOPS and CHAPS were purchased from Sigma-Aldrich (St. Louis, Mo.). The kinase reaction was conducted in clear-bottom 96-well plate from Thermo Fisher Scientific in a final volume of 24 μL. Inhibitors were first diluted serially in DMSO and added to the plate wells before the addition of other reaction components. The final concentration of DMSO in the assay was 0.5%. The PI3K assays were carried out at room temperature in 20 mM MOPS, pH 6.7, 10 mM MgCl2, 5 mM DTT and CHAPS 0.03%. The reaction mixture was prepared containing 50 μM PIP2, kinase and varying concentration of inhibitors. Reactions were initiated by the addition of ATP containing 2.2 μCi [γ-^33P]ATP to a final concentration of 1000 μM. […] Reactions were incubated for 180 min and terminated by the addition of 100 μL of 1 M potassium phosphate pH 8.0, 30 mM EDTA quench buffer. A 100 μL aliquot of the reaction solution was then transferred to 96-well Millipore MultiScreen IP 0.45 μm PVDF filter plate (The filter plate was prewetted with 200 μL 100% ethanol, distilled water, and 1 M potassium phosphate pH 8.0, respectively). The filter plate was aspirated on a Millipore Manifold under vacuum and washed with 18×200 μL wash buffer containing 1 M potassium phosphate pH 8.0 and 1 mM ATP. After drying by aspiration and blotting, the plate was air dried in an incubator at 37° C. overnight. Packard TopCount adapter (Millipore) was then attached to the plate followed with addition of 120 μL Microscint 20 scintillation cocktail (Perkin Elmer) in each well. After the plate sealing, the radioactivity of the product was determined by scintillation counting on Topcount (Perkin-Elmer). IC50 determination was performed by fitting the curve of percent control activity versus the log of the inhibitor concentration using the GraphPad Prism 3.0 software.

[2] = target: T1, PI3Kδ (p110δ/p85α) (Homo sapiens (Human), UniProt O00329); assay: AlphaScreen Assay for PI3Kδ (Assay A1); conditions: column a, 20 μM ATP
Excerpt: PI3-Kinase luminescent assay kit including lipid kinase substrate, D-myo-phosphatidylinositol 4,5-bisphosphate (PtdIns(4,5)P2)D (+)-sn-1,2-di-O-octanoylglyceryl, 3-O-phospho linked (PIP2), biotinylated I(1,3,4,5)P4, PI(3,4,5)P3 Detector Protein, was purchased from Echelon Biosciences (Salt Lake City, Utah). AlphaScreen™ GST Detection Kit including donor and acceptor beads was purchased from PerkinElmer Life Sciences (Waltham, Mass.). PI3Kδ (p110δ/p85α) was purchased from Millipore (Bedford, Mass.). ATP, MgCb, DTT, EDTA, HEPES and CHAPS were purchased from Sigma-Aldrich (St. Louis, Mo.).
AlphaScreen™ Assay for PI3Kδ
The kinase reaction was conducted in 384-well REMP plate from Thermo Fisher Scientific in a final volume of 40 μL. Inhibitors were first diluted serially in DMSO and added to the plate wells before the addition of other reaction components. The final concentration of DMSO in the assay was 2%. The PI3K assays were carried out at room temperature in 50 mM HEPES, pH 7.4, 5 mM MgCl2, 50 mM NaCl, 5 mM DTT and CHAPS 0.04%. Reactions were initiated by the addition of ATP, the final reaction mixture consisted of 20 μM PIP2, 20 μM ATP, 1.2 nM PI3Kδ were incubated for 20 min. 10 μL of reaction mixture was then transferred to 5 μL 50 nM biotinylated I(1,3,4,5)P4 in quench buffer: 50 mM HEPES pH 7.4, 150 mM NaCl, 10 mM EDTA, 5 mM DTT, 0.1% Tween-20, followed with the addition of 10 μL AlphaScreen™ donor and acceptor beads suspended in quench buffer containing 25 nM PI(3,4,5)P3 detector protein. The final concentration of both donor and acceptor beads is […]. After plate sealing, the plate was incubated in a dark location at room temperature for 2 hours. The activity of the product was determined on Fusion-alpha microplate reader (Perkin-Elmer). IC50 determination was performed by fitting the curve of percent control activity versus the log of the inhibitor concentration using the GraphPad Prism 3.0 software.

[3] = target: T1, PI3Kδ (p110δ/p85α); assay: PI3Kδ Scintillation Proximity Assay (Assay A3); conditions: column b, Assay A3 (SPA), 20 μM ATP
Outline: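 Human p110δ/p85α (4 nM) with 20 μM diC8-PIP2 and 20 μM ATP plus [γ-33P]ATP, 210 min at room temperature in 20 mM MOPS pH 6.7, 10 mM MgCl2, 5 mM DTT, 0.03% CHAPS, 0.5% DMSO. Product captured on WGA SPA beads in EDTA quench; IC50 from percent-control versus log concentration fit.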

T1 sequence (O00329 whole entry, species assumed): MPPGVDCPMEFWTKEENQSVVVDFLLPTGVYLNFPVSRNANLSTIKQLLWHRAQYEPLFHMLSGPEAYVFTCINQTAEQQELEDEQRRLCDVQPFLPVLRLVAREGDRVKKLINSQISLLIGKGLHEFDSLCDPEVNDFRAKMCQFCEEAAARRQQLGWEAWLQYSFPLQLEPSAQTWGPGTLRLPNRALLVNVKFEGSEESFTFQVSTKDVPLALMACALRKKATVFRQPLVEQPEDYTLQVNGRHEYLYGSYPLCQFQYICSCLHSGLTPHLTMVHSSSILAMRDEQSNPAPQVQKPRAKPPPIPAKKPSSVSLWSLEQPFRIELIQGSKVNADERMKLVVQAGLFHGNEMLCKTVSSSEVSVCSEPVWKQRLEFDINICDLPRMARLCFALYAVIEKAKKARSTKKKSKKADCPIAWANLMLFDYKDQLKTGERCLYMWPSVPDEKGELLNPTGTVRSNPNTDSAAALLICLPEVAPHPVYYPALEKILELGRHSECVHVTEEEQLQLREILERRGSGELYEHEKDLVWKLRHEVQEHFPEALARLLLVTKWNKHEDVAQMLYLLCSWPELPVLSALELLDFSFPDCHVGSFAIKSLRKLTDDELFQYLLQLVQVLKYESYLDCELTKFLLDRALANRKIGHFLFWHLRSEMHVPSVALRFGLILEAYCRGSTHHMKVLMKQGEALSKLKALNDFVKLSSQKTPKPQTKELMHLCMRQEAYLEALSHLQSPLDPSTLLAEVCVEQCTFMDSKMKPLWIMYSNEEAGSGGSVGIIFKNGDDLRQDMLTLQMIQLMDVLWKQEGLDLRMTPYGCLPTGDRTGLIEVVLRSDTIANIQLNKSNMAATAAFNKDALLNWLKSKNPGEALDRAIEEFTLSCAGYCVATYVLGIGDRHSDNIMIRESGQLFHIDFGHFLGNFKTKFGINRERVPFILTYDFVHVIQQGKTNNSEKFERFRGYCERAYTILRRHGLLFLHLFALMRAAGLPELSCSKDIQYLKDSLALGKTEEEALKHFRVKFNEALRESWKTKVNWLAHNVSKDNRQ
T1 sequence (P27986 whole entry partner, species assumed): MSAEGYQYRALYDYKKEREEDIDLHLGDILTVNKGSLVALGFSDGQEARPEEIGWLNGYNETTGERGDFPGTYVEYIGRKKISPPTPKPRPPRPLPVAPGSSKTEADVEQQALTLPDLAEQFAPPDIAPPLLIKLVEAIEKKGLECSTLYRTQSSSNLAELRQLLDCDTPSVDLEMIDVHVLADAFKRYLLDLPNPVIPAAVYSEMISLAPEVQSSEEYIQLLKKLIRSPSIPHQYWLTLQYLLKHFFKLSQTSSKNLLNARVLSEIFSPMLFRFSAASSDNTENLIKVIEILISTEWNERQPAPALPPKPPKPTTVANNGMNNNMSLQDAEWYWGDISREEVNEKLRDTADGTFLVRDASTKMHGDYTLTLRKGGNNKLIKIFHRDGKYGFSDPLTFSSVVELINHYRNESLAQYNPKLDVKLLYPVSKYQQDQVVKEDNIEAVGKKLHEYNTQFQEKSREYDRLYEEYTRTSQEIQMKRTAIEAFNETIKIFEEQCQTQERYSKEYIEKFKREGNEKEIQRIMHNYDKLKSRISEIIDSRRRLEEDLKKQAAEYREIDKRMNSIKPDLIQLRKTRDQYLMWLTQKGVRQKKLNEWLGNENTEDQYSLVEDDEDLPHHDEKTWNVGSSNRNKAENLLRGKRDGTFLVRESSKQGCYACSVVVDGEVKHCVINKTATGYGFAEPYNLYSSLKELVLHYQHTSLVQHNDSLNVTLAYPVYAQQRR
Chain of PI3Kα (P42336 whole entry, species assumed, canonical isoform): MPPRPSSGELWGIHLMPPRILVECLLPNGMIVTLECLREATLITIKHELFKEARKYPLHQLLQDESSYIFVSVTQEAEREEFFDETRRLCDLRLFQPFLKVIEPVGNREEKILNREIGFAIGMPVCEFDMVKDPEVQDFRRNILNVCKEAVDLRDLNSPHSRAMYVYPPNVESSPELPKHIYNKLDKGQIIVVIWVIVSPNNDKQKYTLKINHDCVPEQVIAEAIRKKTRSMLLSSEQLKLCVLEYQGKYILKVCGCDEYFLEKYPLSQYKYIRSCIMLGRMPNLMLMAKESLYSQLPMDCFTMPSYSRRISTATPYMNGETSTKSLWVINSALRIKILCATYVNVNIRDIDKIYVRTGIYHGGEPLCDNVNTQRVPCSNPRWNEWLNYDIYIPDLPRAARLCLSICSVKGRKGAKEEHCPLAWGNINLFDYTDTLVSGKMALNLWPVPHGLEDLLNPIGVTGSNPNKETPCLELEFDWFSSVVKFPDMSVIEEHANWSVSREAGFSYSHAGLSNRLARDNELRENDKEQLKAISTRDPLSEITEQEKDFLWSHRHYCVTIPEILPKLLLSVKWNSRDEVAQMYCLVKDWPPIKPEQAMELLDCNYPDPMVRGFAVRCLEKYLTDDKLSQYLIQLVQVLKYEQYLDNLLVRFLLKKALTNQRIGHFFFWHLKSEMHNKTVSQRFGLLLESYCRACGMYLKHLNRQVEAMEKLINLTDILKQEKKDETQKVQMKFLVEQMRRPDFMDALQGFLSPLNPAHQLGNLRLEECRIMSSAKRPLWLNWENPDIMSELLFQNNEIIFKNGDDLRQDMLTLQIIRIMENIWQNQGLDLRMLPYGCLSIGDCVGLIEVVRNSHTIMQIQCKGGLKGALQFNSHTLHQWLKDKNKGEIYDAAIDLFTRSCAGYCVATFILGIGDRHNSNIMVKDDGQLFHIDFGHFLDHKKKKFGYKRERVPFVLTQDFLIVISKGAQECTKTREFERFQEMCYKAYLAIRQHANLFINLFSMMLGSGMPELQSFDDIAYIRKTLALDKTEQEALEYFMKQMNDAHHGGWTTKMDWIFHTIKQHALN
Chain of PI3Kα (P27986 whole entry partner, species assumed, canonical isoform): as the sequence (P27986 whole entry partner, species assumed) above

| Structure (SMILES) | IC50 [1] [nM] | IC50 [2] [nM] | IC50 [3] [nM] |
| --- | --- | --- | --- |
| Cc1csc2nc(C(C)Nc3nc(N)nc4[nH]cnc34)c(-c3cccc(F)c3)c(=O)n12 (stereo not drawn) [Example 11, 7-{1-[(2-amino-9H-purin-6-yl)amino]ethyl}-6-(3-fluorophenyl)-3-methyl-5H-[1,3]thiazolo[3,2-a]pyrimidin-5-one] | > 500 | < 50 | < 50 |
| Cc1csc2nc(C(C)Nc3nc(N)nc4[nH]cnc34)c(-c3ccccc3)c(=O)n12 (stereo not drawn) [Example 9, 7-{1-[(2-amino-9H-purin-6-yl)amino]ethyl}-3-methyl-6-phenyl-5H-[1,3]thiazolo[3,2-a]pyrimidin-5-one] | > 500 | < 50 | < 50 |
| Cc1csc2nc(C(C)Nc3nc(N)nc4[nH]cnc34)c(-c3cc(F)cc(F)c3)c(=O)n12 (stereo not drawn) [Example 13, 7-{1-[(2-amino-9H-purin-6-yl)amino]ethyl}-6-(3,5-difluorophenyl)-3-methyl-5H-[1,3]thiazolo[3,2-a]pyrimidin-5-one] | > 500 | < 50 | < 50 |

Source: US9975907B2, “Pyrimidinones as PI3K inhibitors” (Incyte Corporation, priority 2009, dated 2018)
